# Measured values published in US20220089592A1, “IMIDAZO[1,2-A]PYRIDINYL DERIVATIVES AS IRAK4 INHIBITORS” (priority 2019, published 2022).
# Biological target: T1, IRAK4 (Homo sapiens, UniProt Q9NWZ3)
# T1 sequence (Q9NWZ3 1-460): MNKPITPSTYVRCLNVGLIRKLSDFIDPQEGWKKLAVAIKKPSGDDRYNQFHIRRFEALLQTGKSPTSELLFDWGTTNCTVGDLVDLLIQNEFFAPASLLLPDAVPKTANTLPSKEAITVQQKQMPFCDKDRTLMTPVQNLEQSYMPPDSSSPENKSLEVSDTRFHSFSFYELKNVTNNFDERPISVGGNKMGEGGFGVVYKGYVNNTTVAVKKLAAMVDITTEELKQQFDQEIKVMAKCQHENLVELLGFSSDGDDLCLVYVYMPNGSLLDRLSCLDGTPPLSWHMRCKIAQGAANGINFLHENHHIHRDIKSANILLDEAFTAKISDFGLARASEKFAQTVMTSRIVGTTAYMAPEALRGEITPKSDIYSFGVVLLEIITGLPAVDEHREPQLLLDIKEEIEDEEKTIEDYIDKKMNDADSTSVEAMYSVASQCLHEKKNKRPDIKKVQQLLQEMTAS
# Experiment: 2-hour 1 mM ATP IRAK4 Biochemical assay (as above, but with 100 pM IRAK4 and 1 mM ATP)
# Conditions: IRAK4 MSD BIOCHEMICAL (1 mM ATP) IC50 (μM), 100 pM IRAK4, 2 hours
# Outline: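 MSD electrochemiluminescence read-out: biotinylated peptide product bound to streptavidin plates, probed with anti-P-Thr rabbit antibody and Sulfo-Tag goat anti-rabbit. Kinase reaction used 1 mM ATP and 100 pM IRAK4 over 2 hours before EDTA quench.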
row,Compound,IC50
1,"CC12CC(c3cn4cc(NC(=O)c5cccc(C(F)F)n5)cc(OC(F)F)c4n3)(CO1)C2 [Example 419, N-(8-(difluoromethoxy)-2-(1-methyl-2-oxabicyclo[2.1.1]hexan-4-yl)imidazo[1,2-a]pyridin-6-yl)-6-(difluoromethyl)picolinamide]",0.011 µM
2,"COc1nc(NC(=O)c2ccn(CC(C)C)n2)cn2cc(C3CCOCC3)nc12 [Example 464, 1-isobutyl-N-(8-methoxy-2-(tetrahydro-2H-pyran-4-yl)imidazo[1,2-a]pyrazin-6-yl)-1H-pyrazole-3-carboxamide]",0.205 µM
3,"COc1ncccc1C(=O)Nc1cc(OC(F)F)c2nc(C34COC(C)(C3)C4)cn2c1 [Example 420, N-(8-(difluoromethoxy)-2-(1-methyl-2-oxabicyclo[2.1.1]hexan-4-yl)imidazo[1,2-a]pyridin-6-yl)-2-methoxynicotinamide 2,2,2-trifluoroacetate]",0.071 µM
4,"CCOc1cc(NC(=O)c2cccc(C)n2)cn2cc([C@H]3[C@@H]4COC[C@@H]43)nc12 [Example 417, N-(2-((1R,5S,6s)-3-oxabicyclo[3.1.0]hexan-6-yl)-8-ethoxyimidazo[1,2-a]pyridin-6-yl)-6-methylpicolinamide]",0.022 µM
5,"CCC(C)Oc1c(NC(=O)c2cccnc2OC)cn2cc(C34COC(C)(C3)C4)nc2c1F (single isomer, unassigned) [Example 327, N-(7-(sec-butoxy)-8-fluoro-2-(1-methyl-2-oxabicyclo[2.1.1]hexan-4-yl)imidazo[1,2-a]pyridin-6-yl)-2-methoxynicotinamide]",0.02 µM
6,"COc1cc(F)ccc1C(=O)Nc1cn2cc(C34COC(C)(C3)C4)nc2c(OC(C)C)n1 [Example 479, 4-fluoro-N-(8-isopropoxy-2-(1-methyl-2-oxabicyclo[2.1.1]hexan-4-yl)imidazo[1,2-a]pyrazin-6-yl)-2-methoxybenzamide 2,2,2-trifluoroacetate]",0.015 µM
7,"COc1ccccc1C(=O)Nc1cn2cc(C34COC(C)(C3)C4)nc2c(OC(C)C)n1 [Example 477, N-(8-isopropoxy-2-(1-methyl-2-oxabicyclo[2.1.1]hexan-4-yl)imidazo[1,2-a]pyrazin-6-yl)-2-methoxybenzamide 2,2,2-trifluoroacetate]",0.015 µM
8,"Cn1ccc(C(=O)Nc2cc(OC(F)F)c3nc(C45COC(C)(C4)C5)cn3c2)n1 [Example 423, N-(8-(difluoromethoxy)-2-(1-methyl-2-oxabicyclo[2.1.1]hexan-4-yl)imidazo[1,2-a]pyridin-6-yl)-1-methyl-1H-pyrazole-3-carboxamide 2,2,2-trifluoroacetate]",0.092 µM
9,"COc1nc(NC(=O)c2cccc(C(F)F)n2)cn2cc(C34CC(OC)(C3)C4)nc12 [Example 553, 6-(difluoromethyl)-N-(8-methoxy-2-(3-methoxybicyclo[1.1.1]pentan-1-yl)imidazo[1,2-a]pyrazin-6-yl)picolinamide 2,2,2-trifluoroacetate]",0.011 µM
10,"COc1nc(NC(=O)c2cccc3c2OCC3(F)F)cn2cc(C34COC(C)(C3)C4)nc12 [Example 446, 3,3-difluoro-N-(8-methoxy-2-(1-methyl-2-oxabicyclo[2.1.1]hexan-4-yl)imidazo[1,2-a]pyrazin-6-yl)-2,3-dihydrobenzofuran-7-carboxamide]",0.008 µM
11,"COc1nc2nc(C34CC(OC)(C3)C4)cn2cc1NC(=O)c1cccc(C(F)F)n1 [Example 565, 6-(difluoromethyl)-N-(7-methoxy-2-(3-methoxybicyclo[1.1.1]pentan-1-yl)imidazo[1,2-a]pyrimidin-6-yl)picolinamide]",0.01 µM
12,"CCc1cc(NC(=O)c2cccc(C(F)F)n2)cn2cc(C3CCOCC3)nc12 [Example 290, 6-(difluoromethyl)-N-(8-ethyl-2-(tetrahydro-2H-pyran-4-yl)imidazo[1,2-a]pyridin-6-yl)picolinamide]",0.013 µM
13,"COc1nc(NC(=O)c2cccc(C)n2)cn2cc(C3CCOCC3)nc12 [Example 455, N-(8-methoxy-2-(tetrahydro-2H-pyran-4-yl)imidazo[1,2-a]pyrazin-6-yl)-6-methylpicolinamide]",0.043 µM

# Stronger by IC50, values ahead:
row,IC50,Compound
1,0.002 µM,"COC(=O)C(C)(C)c1cn2cc(NC(=O)c3cccc(C(F)F)n3)c(OC(C)C)cc2n1 [Example 261, methyl 2-(6-(6-(difluoromethyl)picolinamido)-7-isopropoxyimidazo[1,2-a]pyridin-2-yl)-2-methylpropanoate]"
2,0.001 µM,"C[C@@H]1C[C@H](Oc2cc3nc(C4CCOCC4)cn3cc2NC(=O)c2cccc(C(F)F)n2)C[C@H](C)O1 [Example 187, 6-(difluoromethyl)-N-(7-(((2R*,4R*,6S*)-2,6-dimethyltetrahydro-2H-pyran-4-yl)oxy)-2-(tetrahydro-2H-pyran-4-yl)imidazo[1,2-a]pyridin-6-yl)picolinamide]"
3,0.001 µM,"CC(C)Oc1c(NC(=O)c2cccc3ccnn23)cn2cc(C34COC(C)(C3)C4)nc2c1F [Example 548, N-(8-fluoro-7-isopropoxy-2-(1-methyl-2-oxabicyclo[2.1.1]hexan-4-yl)imidazo[1,2-a]pyridin-6-yl)pyrazolo[1,5-a]pyridine-7-carboxamide 2,2,2-trifluoroacetate]"
4,0.001 µM,"O=C(Nc1cn2cc(C3CCOCC3)nc2cc1OC1CCOC1)c1cccc(C(F)F)n1 (centres unmarked) [Example 183, 6-(difluoromethyl)-N-(2-(tetrahydro-2H-pyran-4-yl)-7-((tetrahydrofuran-3-yl)oxy)imidazo[1,2-a]pyridin-6-yl)picolinamide]"
5,0.001 µM,"CCOc1cc2nc(CC3CCS(=O)(=O)C3)cn2cc1NC(=O)c1cccc(C(F)F)n1 (centres unmarked) [Example 257, 6-(difluoromethyl)-N-(2-((1,1-dioxidotetrahydrothiophen-3-yl)methyl)-7-ethoxyimidazo[1,2-a]pyridin-6-yl)picolinamide]"
6,0.001 µM,"Cc1nc(C(=O)Nc2cn3cc(C45COC(C)(C4)C5)nc3cc2OC(C)C)co1 [Example 529, N-(7-isopropoxy-2-(1-methyl-2-oxabicyclo[2.1.1]hexan-4-yl)imidazo[1,2-a]pyridin-6-yl)-2-methyloxazole-4-carboxamide]"
7,0.007 µM,"COc1ncccc1C(=O)Nc1cn2cc(C34COC(C)(C3)C4)nc2nc1OC1CC1 [Example 505, N-(7-cyclopropoxy-2-(1-methyl-2-oxabicyclo[2.1.1]hexan-4-yl)imidazo[1,2-a]pyrimidin-6-yl)-2-methoxynicotinamide 2,2,2-trifluoroacetate]"
8,0.004 µM,"COc1cc(NC(=O)c2cccc(C(F)F)n2)cn2cc(C3CCCOC3)nc12 (single isomer, unassigned) [Example 269, 6-(difluoromethyl)-N-(8-methoxy-2-(tetrahydro-2H-pyran-3-yl)imidazo[1,2-a]pyridin-6-yl)picolinamide]"
9,0.004 µM,"Cn1ccc(C(=O)Nc2cn3cc(C45COC(C)(C4)C5)nc3c(F)c2OC2CCCC2)n1 [Example 437, N-(7-(cyclopentyloxy)-8-fluoro-2-(1-methyl-2-oxabicyclo[2.1.1]hexan-4-yl)imidazo[1,2-a]pyridin-6-yl)-1-methyl-1H-pyrazole-3-carboxamide 2,2,2-trifluoroacetate]"
10,0.001 µM,"COc1ncccc1C(=O)Nc1cn2cc(C34COC(C)(C3)C4)nc2cc1OC(C)C(F)(F)F (single isomer, unassigned) [Example 319, 2-methoxy-N-(2-(1-methyl-2-oxabicyclo[2.1.1]hexan-4-yl)-7-((1,1,1-trifluoropropan-2-yl)oxy)imidazo[1,2-a]pyridin-6-yl)nicotinamide]"
11,0.001 µM,"CCOc1cc2nc(CC3CCOC3)cn2cc1NC(=O)c1cccc(C(F)F)n1 (centres unmarked) [Example 14, 6-(difluoromethyl)-N-(7-ethoxy-2-((tetrahydrofuran-3-yl)methyl)imidazo[1,2-a]pyridin-6-yl)picolinamide]"
12,0.001 µM,"CC(C)Oc1cc2nc(C3CC3)cn2cc1NC(=O)c1cccc(C(F)F)n1 [Example 526, N-(2-cyclopropyl-7-isopropoxyimidazo[1,2-a]pyridin-6-yl)-6-(difluoromethyl)picolinamide]"
13,0.006 µM,"CCOc1cc(NC(=O)c2cccc(C(F)(F)F)n2)cn2cc(C3CCCOC3)nc12 (single isomer, unassigned) [Example 287, N-(8-ethoxy-2-(tetrahydro-2H-pyran-3-yl)imidazo[1,2-a]pyridin-6-yl)-6-(trifluoromethyl)picolinamide]"
14,0.004 µM,"CC(C)Oc1cc2nc(C3CC3)cn2cc1NC(=O)c1ccn(C(F)F)n1 [Example 528, N-(2-cyclopropyl-7-isopropoxyimidazo[1,2-a]pyridin-6-yl)-1-(difluoromethyl)-1H-pyrazole-3-carboxamide]"
15,0.001 µM,"CC12CC(c3cn4cc(NC(=O)c5cccc(C(F)F)n5)c(OC(F)F)cc4n3)(CO1)C2 [Example 395, N-(7-(difluoromethoxy)-2-(1-methyl-2-oxabicyclo[2.1.1]hexan-4-yl)imidazo[1,2-a]pyridin-6-yl)-6-(difluoromethyl)picolinamide 2,2,2-trifluoroacetate]"
16,0.006 µM,"COc1ncccc1C(=O)Nc1cn2cc(C34COC(C)(C3)C4)nc2c(OC(C)C)n1 [Example 337, N-(8-isopropoxy-2-(1-methyl-2-oxabicyclo[2.1.1]hexan-4-yl)imidazo[1,2-a]pyrazin-6-yl)-2-methoxynicotinamide]"
